Patent publication US6140317A, “Pyrrolopyrimidines and processes for their preparation” (Novartis AG, priority 1996, dated 2000)

Assays:
[1] = target: T1, EGF-receptor-specific tyrosine protein kinase (EGF-R-PTK; EGF-R ICD) (Homo sapiens, UniProt P00533); test: Inhibition of the EGF-receptor-specific tyrosine kinase (recombinant intracellular domain of the EGF receptor); assay type: biochemical
T1 construct: recombinant intracellular domain of the EGF receptor
Description: The compounds of formula I inhibit the enzyme activity in comparison with the control without inhibitor by 50% (IC50), for example in a concentration of from 0.001 to 20 μM, especially from 0.01 to 5 μM.
Inhibition of the EGF-receptor-specific Tyrosine Kinase
In accordance with the method mentioned above and using the recombinant intracellular domain of the EGF receptor (Europ. J. Biochem. 207, 265-275 (1992)), the following IC50 values are obtained: […]

BALB/MK cells = test: Inhibition of the growth of BALB/MK (mouse keratinocyte) cells in vitro, methylene blue staining; assay type: cell-based; settings: 72 h, incubated for three days
Description: In a known test method (see Meyer et al., Int. J. Cancer 43, 851 (1989)) the inhibitory action of the compounds of formula I is determined briefly as follows: BALB/MK cells (10 000/microtiter plate well) are transferred to 96-well microtiter plates. The test compounds (dissolved in DMSO) are added in a series of concentrations (dilution series), so that the final concentration of DMSO is no greater than 1% (v/v). After the addition, the plates are incubated for three days, during which time the control cultures without test compound are able to undergo at least three cell division cycles. The growth of the MK cells is measured by means of methylene blue staining: after the incubation the cells are fixed with glutaraldehyde, washed with water and stained with 0.05% methylene blue. After a washing step, the stain is eluted with 3% HCl and the optical density per well of the microtitre plate is measured using a Titertek multiskan at 665 nm. IC50 values are determined by means of a computer-aided system using the formula
IC50 =[(ODtest -ODstart)/(ODcontrol
The IC50 value in those experiments is defined as that concentration of the test compound in question which results in a 50% decrease in the number of cells in comparison with the control without inhibitor.
The growth of BALB/MK cells in the presence of compounds of formula I is tested in accordance with the procedure described above. […]

v-abl kinase = v-abl kinase (Abelson murine leukemia virus, UniProt P00521); test: Inhibition of the v-abl kinase ([Val5]-angiotensin II and [gamma-32P]-ATP as substrates); assay type: biochemical; settings: v-abl tyrosine kinase
Chain of v-abl kinase (P00521 whole entry): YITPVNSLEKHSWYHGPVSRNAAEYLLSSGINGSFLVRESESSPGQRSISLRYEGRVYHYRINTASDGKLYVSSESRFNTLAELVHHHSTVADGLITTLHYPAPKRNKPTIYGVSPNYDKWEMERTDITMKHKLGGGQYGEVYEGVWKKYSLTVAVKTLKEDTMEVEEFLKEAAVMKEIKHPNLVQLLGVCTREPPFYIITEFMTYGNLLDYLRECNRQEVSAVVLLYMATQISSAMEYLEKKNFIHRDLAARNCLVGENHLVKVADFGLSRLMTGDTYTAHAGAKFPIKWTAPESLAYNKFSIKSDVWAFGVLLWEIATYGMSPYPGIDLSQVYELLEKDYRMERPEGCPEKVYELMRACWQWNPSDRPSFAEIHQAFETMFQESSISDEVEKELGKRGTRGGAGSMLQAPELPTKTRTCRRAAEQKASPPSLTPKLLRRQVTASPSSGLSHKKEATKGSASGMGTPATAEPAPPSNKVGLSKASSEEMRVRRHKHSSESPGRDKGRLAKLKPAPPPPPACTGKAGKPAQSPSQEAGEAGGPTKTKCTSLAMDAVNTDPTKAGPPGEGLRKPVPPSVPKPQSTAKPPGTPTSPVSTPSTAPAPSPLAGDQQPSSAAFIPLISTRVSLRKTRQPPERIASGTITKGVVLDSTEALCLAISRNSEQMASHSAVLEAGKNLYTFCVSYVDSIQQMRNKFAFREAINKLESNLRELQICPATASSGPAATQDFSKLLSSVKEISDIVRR
Description: The above-mentioned inhibition of the v-abl tyrosine kinase is determined in accordance with the methods of N. Lydon et at, Oncogene Research 5, 161-173 (1990) and J. F. Geissler et al., Cancer Research 52, 4492-4498 (1992), with [Val^5 ]-angiotensin II and [γ -^32 P]-ATP being used as substrates.
In accordance with the procedure mentioned above (Oncogene Research 5, 161-173 (1990) and Cancer Research 52, 4492-4498 (1992), the following IC50 values are obtained: […]

T1 sequence (P00533 669-1210 limits assumed): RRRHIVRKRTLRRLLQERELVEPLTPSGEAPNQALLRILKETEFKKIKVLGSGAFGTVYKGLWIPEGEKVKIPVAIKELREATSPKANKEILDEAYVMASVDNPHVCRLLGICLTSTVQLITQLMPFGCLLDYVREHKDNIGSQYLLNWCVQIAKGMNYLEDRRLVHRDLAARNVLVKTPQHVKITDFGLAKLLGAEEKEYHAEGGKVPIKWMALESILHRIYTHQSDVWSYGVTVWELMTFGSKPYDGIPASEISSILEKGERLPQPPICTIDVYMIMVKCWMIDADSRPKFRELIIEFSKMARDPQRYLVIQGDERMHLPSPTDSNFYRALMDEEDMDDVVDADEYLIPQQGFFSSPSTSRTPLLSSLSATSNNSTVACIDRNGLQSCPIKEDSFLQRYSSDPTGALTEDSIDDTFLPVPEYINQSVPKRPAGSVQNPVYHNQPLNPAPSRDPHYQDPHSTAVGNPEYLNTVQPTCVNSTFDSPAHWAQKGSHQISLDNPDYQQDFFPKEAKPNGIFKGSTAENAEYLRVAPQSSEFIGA

Row | Structure (SMILES) | IC50 [1] [nM] | IC50 (BALB/MK cells) [nM] | IC50 (v-abl kinase) [nM]
1 | Cc1[nH]c2ncnc(N3CCCc4ccccc43)c2c1C [Example 5, 4-(1,2,3,4-Tetrahydroquinolin-1-yl)-5,6-dimethyl-7H-pyrrolo[2,3-d]pyrimidine] | 2690 | – | –
2 | Nc1ccc(-c2cc3c(N4CCc5ccccc54)ncnc3[nH]2)cc1 [Example 7, 4-(2,3-Dihydroindol-1-yl)-6-(4-amino-phenyl)-7H-pyrrolo[2,3-d]pyrimidine] | 210 | 15800 | 78
3 | Cc1[nH]c2ncnc(N3CCc4ccccc43)c2c1C [Example 1, 4-(2,3-Dihydroindol-1-yl)-5,6-dimethyl-7H-pyrrolo[2,3-d]pyrimidine] | 1560 | – | –
4 | Nc1ccc(-c2cc3c(N4CCCc5ccccc54)ncnc3[nH]2)cc1 [Example 11, 4-(1,2,3,4-Tetrahydroquinolin-1-yl)-6-(4amino-phenyl)-7H-pyrrolo[2.3-d]-pyrimidine] | 26 | 760 | 2
